According to ChEMBL document CHEMBL5385919, “A Survey of Recently Discovered Naturally Occurring Organohalogen Compounds” (J Nat Prod, 2024):
Values after ≈ are worked out from the molar mass of the structure shown. Values belong to the compound of their own block, whether it stands above or below them.

How the values were obtained:
[1] = system: Escherichia coli; assay: Antibacterial activity against Escherichia coli assessed as reduction in bacterial growth; assay type: functional
[2] = target: E3 ubiquitin-protein ligase CBL-B (Homo sapiens, UniProt Q13191); assay: Inhibition of recombinant Cbl-b (unknown origin) in presence of ATP incubated for 60 mins by ELISA analysis
E3 ubiquitin-protein ligase CBL-B, sequence (Q13191 whole entry): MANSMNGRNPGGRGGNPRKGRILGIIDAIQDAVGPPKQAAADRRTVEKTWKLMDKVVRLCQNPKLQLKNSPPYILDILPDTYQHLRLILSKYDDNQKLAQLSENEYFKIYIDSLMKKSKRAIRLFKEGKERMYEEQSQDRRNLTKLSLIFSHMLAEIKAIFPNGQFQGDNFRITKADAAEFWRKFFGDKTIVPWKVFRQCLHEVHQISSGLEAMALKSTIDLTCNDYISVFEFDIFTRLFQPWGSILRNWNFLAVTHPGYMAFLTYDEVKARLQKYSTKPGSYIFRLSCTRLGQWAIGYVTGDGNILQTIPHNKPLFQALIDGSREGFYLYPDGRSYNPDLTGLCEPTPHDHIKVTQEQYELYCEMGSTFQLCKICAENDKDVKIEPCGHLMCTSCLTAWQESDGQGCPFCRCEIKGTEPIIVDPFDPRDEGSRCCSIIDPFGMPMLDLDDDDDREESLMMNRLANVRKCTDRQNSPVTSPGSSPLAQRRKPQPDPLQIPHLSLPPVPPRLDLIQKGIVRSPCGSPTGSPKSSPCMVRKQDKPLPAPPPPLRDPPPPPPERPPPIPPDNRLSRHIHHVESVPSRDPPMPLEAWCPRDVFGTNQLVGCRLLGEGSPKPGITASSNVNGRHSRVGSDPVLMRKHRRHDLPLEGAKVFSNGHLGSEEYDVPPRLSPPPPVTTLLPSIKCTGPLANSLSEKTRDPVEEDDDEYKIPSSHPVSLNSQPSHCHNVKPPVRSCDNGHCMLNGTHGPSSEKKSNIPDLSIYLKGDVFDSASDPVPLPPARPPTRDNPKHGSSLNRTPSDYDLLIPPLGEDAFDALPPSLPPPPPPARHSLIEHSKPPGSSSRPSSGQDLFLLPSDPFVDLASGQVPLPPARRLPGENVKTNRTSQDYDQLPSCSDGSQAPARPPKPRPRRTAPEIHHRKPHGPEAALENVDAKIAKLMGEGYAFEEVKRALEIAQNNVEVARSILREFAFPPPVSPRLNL

[3] = system: Staphylococcus aureus; assay: Antibacterial activity against methicillin resistant Staphylococcus aureus assessed as reduction in bacterial growth; assay type: functional, organism-based
[4] = system: Staphylococcus aureus; assay: Antibacterial activity against Staphylococcus aureus assessed as reduction in bacterial growth; assay type: functional
[5] = system: Nannizzia gypsea; assay: Antifungal activity against Microsporum gypseum assessed as reduction in fungal growth; assay type: functional
[6] = system: HCT-8; assay: Cytotoxicity against human HCT-8 cells assessed as inhibition of cell growth incubated for 48 hrs by MTT assay; assay type: functional, cell-based; details: HCT-8, 48 h
[7] = system: RAW264.7; assay: Inhibition of LPS-induced NO production in mouse RAW264.7 cells; assay type: functional, cell-based
[8] = system: MGC-803; assay: Cytotoxicity against human MGC-803 cells assessed as inhibition of cell growth incubated for 48 hrs by MTT assay; assay type: functional, cell-based; details: MGC-803, 48 h
[9] = system: MCF7; assay: Cytotoxicity against human MCF7 cells assessed as inhibition of cell growth incubated for 48 hrs by MTT assay; assay type: functional, cell-based; details: MCF7, 48 h
[10] = system: HL-60; assay: Cytotoxicity against human HL-60 cells assessed as inhibition of cell growth incubated for 48 hrs by MTT assay; assay type: functional, cell-based; details: HL-60, 48 h
[11] = system: KB; assay: Cytotoxicity against human KB cells assessed as inhibition of cell growth incubated for 48 hrs by MTT assay; assay type: functional, cell-based
[12] = system: Bacillus subtilis; assay: Antibacterial activity against Bacillus subtilis PCI219 assessed as reduction in bacterial growth; assay type: functional
[13] = system: Kocuria rhizophila; assay: Antibacterial activity against Kocuria rhizophila ATCC9341 assessed as reduction in bacterial growth; assay type: functional
[14] = system: P388; assay: Cytotoxicity against mouse P388 cells assessed as inhibition of cell growth; assay type: functional, cell-based
[15] = system: Staphylococcus aureus; assay: Antibacterial activity against Staphylococcus aureus FDA 209P JC-1 assessed as reduction in bacterial growth; assay type: functional
[16] = Inhibition of neuronal excitability in mouse Primary neocortical neuron assessed as reduction in 4-AP-induced SCO frequency measured for 1 hr by FLIPR assay; assay type: functional, cell-based
[17] = Inhibition of neuronal excitability in mouse Primary neocortical neuron assessed as reduction in 4-AP-induced SCO amplitude measured for 1 hr by FLIPR assay; assay type: functional, cell-based
[18] = system: A549; assay: Cytotoxicity against human A549 cells assessed as inhibition of cell growth incubated for 48 hrs by MTT assay; assay type: functional, cell-based; details: A549, 48 h
[19] = system: MDA-MB-231; assay: Growth inhibition of human MDA-MB-231 cells assessed inhibition of cell growth; assay type: functional
[20] = system: Bacillus subtilis; assay: Antibacterial activity against Bacillus subtilis ATCC 6633 assessed as reduction in bacterial growth; assay type: functional
[21] = system: HepG2; assay: Cytotoxicity against human HepG2 cells assessed as inhibition of cell growth; assay type: functional, cell-based
[22] = system: Trypanosoma brucei rhodesiense; assay: Antitrypanosomal activity against Trypanosoma brucei rhodesiense IL-1501 assessed as inhibition of cell growth incubated for 69 hrs by AlamarBlue assay; assay type: functional, organism-based
[23] = system: Bacillus subtilis; assay: Antibacterial activity against Bacillus subtilis assessed as reduction in bacterial growth; assay type: functional
[24] = system: Plasmodium falciparum; assay: Antiplasmodial activity against Plasmodium falciparum K1 assessed as reduction in parasite growth; assay type: functional, organism-based
[25] = system: HL-60; assay: Cytotoxicity against human HL-60 cells assessed as inhibition of cell growth; assay type: functional, cell-based
[26] = system: Aspergillus sydowii; assay: Antifungal activity against Aspergillus sydowii SCSIO 00305 assessed as inhibition of fungal growth; assay type: functional, organism-based

SMILES: O=C1C=Cc2c3c4c(c(O)ccc4c4ccc(O)c1c24)[C@@H](O)[C@H](Cl)[C@@H]3O
- MIC [1]: 6.25 µM (≈ 2.3 µg/mL)

SMILES: Cn1cc(Br)cc1C(=O)NC[C@@H]1[C@@H](CNC(=O)c2ccc(Br)[nH]2)Cc2nc(N)[nH]c2[C@H]1c1c[nH]c(N)n1
- IC50 [2]: 33 µM

SMILES: Cc1cc(O)c2c3c(c(O)cc(OC[C@@H](O)C(C)(C)Cl)c13)C(=O)C2=O
- MIC [3]: 12.5 µM

SMILES: O=C1NC[C@H](c2cc(Br)c(OC[C@H](O)CNC(=O)/C(Cc3cc(Br)c(O)c(Br)c3O)=N\O)c(Br)c2)O1
- MIC [4]: 5.2 µM

SMILES: C=C(CCC=C(C)C)[C@]1(O)CC[C@@](C)(Cl)[C@H](Br)C1
- MIC [5]: 8 µg/mL (≈ 23.8 µM)
- MIC [4]: 15.4 µg/mL

SMILES: C=C(COC(=O)Cc1cc(O)c(O)c(Cl)c1)[C@@]12O[C@@H]1[C@@]1(C)C(=CC2=O)CC[C@@H](O)[C@@H]1C
- IC50 [6]: 5.4 µM

SMILES: CC(=O)/C=C/C1=CC[C@H]2[C@@H](C[C@@H]1C)OC(=O)[C@]2(O)CCl
- IC50 [7]: 16 µM

SMILES: COc1c(Cl)ccc2c(=O)c3c(O)c4c5c(c3oc12)OCO[C@@H]5Cc1c-4c(O)c2c(=O)[nH]c(C)c(Cl)c2c1O
- IC50 [8]: 0.008 µg/mL (≈ 0.014 µM)
- IC50 [9]: 0.008 µg/mL (≈ 0.014 µM)
- IC50 [10]: 0.008 µg/mL (≈ 0.014 µM)
- IC50 [11]: 0.008 µg/mL (≈ 0.014 µM)

SMILES: CC(C)=C1C[C@@]2(COC(=O)Cc3cc(O)c(O)c(Cl)c3)C(=CC1=O)CC[C@@H](O)[C@@H]2C
- IC50 [18]: 3.2 µM

SMILES: CCCCC[C@H]1CCC[C@@H](Cl)C[C@@H](OC)c2cc(O)c(c(O[C@@H]3OC[C@@H](O)[C@H](O)[C@H]3O)c2)[C@@H](CCCC)CCC[C@@H](Cl)C[C@@H](OC)c2cc(O)c1c(O)c2
- GI50 [19]: 0.72 µM

SMILES: C=C1C[C@H](O)[C@H](Br)C(C)(C)[C@]12CC=C(COC)CC2
- IC50 [21]: 4.08 µM

SMILES: Oc1cc(Br)cc(Br)c1Oc1cc(Br)c(Br)c(Br)c1Oc1ccc(Br)cc1Br
- IC50 [22]: 1.2 µM

SMILES: CC[C@H](C)[C@H]1O[C@@H](CC(C)=O)O[C@@]1(C)/C=C/C1=CC2=C(Cl)C(=O)[C@](C)(O)[C@H](OC(C)=O)[C@H]2CO1
- MIC [3]: 12.5 µg/mL

SMILES: CC(C)/C1=C/[C@H](O)[C@](C)(O)CC[C@H](Cl)[C@@]2(C)CC[C@H](O2)[C@](C)(O)CC1
- IC50 [25]: 3.67 µM

SMILES: COc1cc2oc3cc4c(c(OC)c3c(=O)c2c(OC)c1Cl)[C@@H]1C=CO[C@@H]1O4
- IC50 [26]: 2.9 µM

Continued, in another order:

- MIC [12]: 6.25 µg/mL (≈ 19.4 µM)
- MIC [13]: 6.25 µg/mL (≈ 19.4 µM)
- MIC [15]: 6.25 µg/mL (≈ 19.4 µM)
SMILES: Cc1c(O)cc2c(c1O)C(=O)C1=C(OC(C)(C)[C@H](Cl)C1)C2=O
- IC50 [14]: 9.8 µM

- EC50 [16]: 4.77 µM
- EC50 [17]: 5.62 µM
SMILES: CC(C)(O)C(=O)OC[C@](C)(O)[C@H]1OC2=CC[C@@]3(C)[C@@](O)(CC[C@H]4Cc5c([nH]c6cc(Cl)ccc56)[C@@]43C)C2=CC1=O

- GI50 [19]: 0.72 µM
SMILES: CCCC[C@H]1CCCCC[C@@H](O)c2cc(O)c(c(O)c2)[C@@H](CCCC)CCC[C@@H](Cl)C[C@@H](OC)c2cc(O)c1c(O)c2

- MIC [5]: 4 µg/mL (≈ 11.9 µM)
- MIC [4]: 26.8 µg/mL
SMILES: C=C(C)[C@@H](O)CC/C(C)=C1\CC[C@](C)(Cl)[C@@H](Br)C1

- MIC [20]: 0.098 µg/mL (≈ 0.172 µM)
- MIC [15]: 0.049 µg/mL (≈ 0.086 µM)
SMILES: CO[C@H]1C[C@@H](O)[C@H](OC)c2oc3c4c5c(c(O)c3c(=O)c21)-c1c(cc2c(Cl)c(C)[nH]c(=O)c2c1O)C[C@H]5OCO4

- MIC [4]: 5.2 µM
SMILES: COc1c(Br)cc(C/C(=N/O)C(=O)NC[C@@H](O)COc2c(Br)cc([C@H]3CNC(=O)O3)cc2Br)c(O)c1Br

- GI50 [19]: 0.72 µM
SMILES: CCCC[C@H]1CCC[C@@H](Cl)CCc2cc(O)c(c(O)c2)[C@@H](CCCC)CCC[C@@H](Cl)C[C@@H](OC)c2cc(O)c1c(O)c2

- IC50 [22]: 0.7 µM
SMILES: Oc1cc(Br)cc(Br)c1Oc1cc(Br)c(Br)c(Br)c1Oc1ccc(Br)cc1I

- MIC [4]: 0.8 µg/mL
- MIC [23]: 0.4 µg/mL (≈ 0.808 µM)
SMILES: Cc1cc(O)cc2c1[C@@H]1O[C@@](C)(Cc3cc4c(c(O)c31)C(=O)c1c(O)cc(O)c(Cl)c1C4(C)C)O2
- IC50 [24]: 4.49 µM
